Results taken from ChEMBL document CHEMBL5252643, “Jozibrevine D from Ancistrocladus ileboensis, the fifth alkaloid in a series of six possible atropo-diastereomeric naphthylisoquinoline dimers, showing antiparasitic and antileukemic activities” (Bioorg Med Chem Lett, 2023).

Experiments:
CCRF-CEM = assay: Cytotoxicity against human CCRF-CEM cells; type: functional, cell-based
[1] = Selectivity ratio of IC50 for human CEM/ADR5000 cells to IC50 for human CCRF-CEM cells; type: functional
ADR5000 cell line = assay: Cytotoxicity against multidrug resistant human CEM/ADR5000 cells; type: functional, cell-based
Leishmania donovani = assay: Antileishmanial activity against Leishmania donovani; type: functional, organism-based
Plasmodium falciparum = assay: Antiplasmodial activity against Plasmodium falciparum NF54; type: functional, organism-based
[2] = Cytotoxicity against rat L6 cells assessed as reduction in cell viability by resazurin dye based assay; type: toxicity
[3] = tested on: Trypanosoma brucei rhodesiense; assay: Antitrypanosomal activity against Trypanosoma brucei rhodesiense; type: functional, organism-based
[4] = Selectivity index, ratio of IC50 for rat L6 cells to IC50 for Plasmodium falciparum NF54; type: toxicity; conditions: L6 cells versus Plasmodium falciparum NF54, read-out: Ratio IC50
Trypanosoma cruzi = assay: Antitrypanosomal activity against Trypanosoma cruzi; type: functional, organism-based

| Structure (SMILES) | IC50 (CCRF-CEM) | Ratio IC50 [1] | IC50 (ADR5000 cell line) | IC50 (Leishmania donovani) | IC50 (Plasmodium falciparum) | IC50 [2] | IC50 [3] | selectivity ratio [4] | IC50 (Trypanosoma cruzi) |
| --- | --- | --- | --- | --- | --- | --- | --- | --- | --- |
| COc1cccc2c(-c3ccc4c(c3O)[C@@H](C)N[C@H](C)C4)c(C)c(-c3c(C)c(-c4ccc5c(c4O)[C@@H](C)N[C@H](C)C5)c4cccc(OC)c4c3O)c(O)c12 (stereo in doubt; 4d) | 5.35 µM | 1.42 | 7.59 µM |  |  |  |  |  |  |
| COc1cccc2c(-c3ccc4c(c3O)[C@@H](C)N[C@H](C)C4)c(C)c(-c3c(C)c(-c4ccc5c(c4O)[C@@H](C)N[C@H](C)C5)c4cccc(OC)c4c3O)c(O)c12 (stereo in doubt; 4e) | 11.5 µM | 1.45 | 16.6 µM | 105 µM | 0.137 µM | 6.22 µM | 0.527 µM | 45.4 | 22.2 µM |
